The results in this text go back to patent publication US11701361B2, “p110-delta inhibitors treat and prevent autoimmunity while sparing the ability to mount an immune response to exogenous immunogens” (THE REGENTS OF THE UNIVERSITY OF COLORADO, priority 2018, dated 2023).

In one experiment the test system is SHP-1^−/− B cells. Description: adoptive transfer of autoreactive SHP-1-/- Ars/A1 B cells, loss of anergy. The experiment is classed as in vivo, mouse. The source says: Except where otherwise indicated, 6-16 week old mice were used in all experiments. Both male and female mice were used, but experiments were sex matched and both sexes gave identical results, with the exception of only female mice being used in the VH125.NOD experiments as female mice develop accelerated disease. hCD20-TamCre animals (Khalil, et al. Science 336: 1178-81) were intercrossed with mice carrying the rosa26-flox-STOP-YFP allele (Srinivas, et al., BMC Dev. Biol. 1:4), generating mice in which YFP is expressed in B cells upon Cre activation. These mice were crossed with Ars/A1 (Benschop, et al., Immunity 14: 33-43) transgenic mice to generate hCD20-TamCre×rosa26-flox-STOP-YFP×Ars/A1 mice. B cells from these mice will be referred to as WT Ars/A1. These mice were also crossed with SHIP-1^flox/flox mice (Karlsson, et al. J Exp Med 198: 333-40). hCD20-TamCre×rosa26-flox-STOP-YFP×Ars/A1 mice were also crossed to PTEN^flox/flox mice (Anzelon, et al., Nat Immunol 4: 287-94) and SHP-1^flox/flox mice to generate mice in which SHIP-1, PTEN and SHP-1 deletion can be induced in anergic B cells. hCD20-TamCre×rosa26-flox-STOP-YFP×PTEN^flox/flox×Ars/A1 were crossed to hCD20-TamCre×rosa26-flox-STOP-YFP×SHIP-1^flox/flox×Ars/A1 to generate hCD20-TamCre×rosa26-flox-STOP-YFPx PTEN^flox/wt×SHIP-1^flox/wt×Ars/A1 to allow for the double haploinsufficiency of both PTEN and SHIP-1 within B cells.
(§1) 2 hours before adoptive transfer, C57BL/6 recipient mice received 200 rads irradiation. […] B cells from donor mice were isolated via depletion of CD43+ cells with anti-CD43-conjugated magnetic beads (MACS anti-mouse CD43; Miltenyi Biotec). Alternatively, CD4+ T cells were isolated via CD4 positive selection (MACS anti-mouse CD4 (L3T4) Miltenyi Biotec). Resultant populations were >97% pure based on flow cytometric analyses. Donor B cells were labeled with either CellTrace Violet (Molecular Probes) or CFSE (Molecular Probes) at 5 μM for 5 minutes at room temperature prior to transfer. Donor CD4 T cells were labeled with CFSE (Molecular Probes) at 5 μM for 5 minutes at room temperature prior to transfer. 1-2×10^6 donor cells in 200 μl PBS were adoptively transferred via IV injection. 24 hours post transfer, tamoxifen was administered to activate Cre. Tamoxifen (Sigma-Aldrich) was dissolved in 100% corn oil (Sigma-Aldrich) at 20 mg/ml. Recipient mice were injected IP with 100 μl (2 mg) on two consecutive days.
(§2) Diet dose (DD) is calculated by multiplying the single daily dose (SD) by the body weight of a mouse (BW) and dividing that by the daily food intake (FI) [DD=(SD×BW)/FI].
(§3) For VH125.NOD experiments animals are placed on control chow immediately after weaning.
(§4) Spleens were mechanically disrupted, single-cell suspensions were generated, and red blood cells were lysed with ammonium chloride TRIS. Cells were resuspended in PBS containing 1% FBS and incubated with indicated antibodies. For analysis of cell surface markers, antibodies against the following molecules were used: B220-PE (BioLegend), B220-BV786 (BD Biosciences), B220-BV510 (BioLegend), CD4-BV711 (BioLegend), CD8-BV421 (BioLegend), CD138-PECy7 (BioLegend), CD69-BV786 (BD Biosciences), CD86-PerCPCy5.5 (BioLegend). After cell surface staining, the cells were fixed and permeabilized with Cytofix/Cytoperm (BD) per manufacturer's instructions and stained with Dylight650-E4 anti-Ars/A1 idiotype (produced and conjugated in our laboratory) OR HEL-650 (produced and conjugated in our laboratory) and Alexa Fluor 488-anti-GFP (rabbit polyclonal; Life Technologies). Events were collected on a CyAn ADP (Dako) and subsequent analysis using FlowJo software (Tree Star).
For detection of IgM^a anti-Ars antibodies, microtiter plates were coated with 10 μg/ml Ars-BSA16 in PBS and blocked with 2 mg/ml BSA in PBS 0.05% Tween-20. For detection of IgM^a anti-HEL antibodies, microtiter plates were coated with 10 μg/ml HEL in PBS and blocked with 2 mg/ml BSA in PBS 0.05% Tween-20. […]

A further experiment relates to MD4 B cells. Description: MD4 B cell adoptive transfer, response to HEL-SRBC immunization. The experiment is classed as in vivo, mouse. The procedure:
as §1, §2, §3
HEL conjugated to SRBCs was used to produce antigen for experiments with MD4 B cells. SRBCs (Colorado Serum Company) were stored in Alsever's solution at 4° C. SRBCs are washed 3 times in PBS prior to use. 1 ml of 50 mg/ml of the chemical crosslinker N-(3-Dimethylaminopropyl)-N-ethylcarbodiimide hydrochloride (Sigma-Aldrich) was added to 1 ml packed SRBCs and 15 ml of 5 mg/ml HEL (Sigma-Aldrich), mixed and rotated at room temperature for 45 minutes. Mice were immunized IP with 200 μl of a 5% HEL-SRBC in PBS. For NP4Ova-Alum immunizations, 10 mg/ml alum and 5 mg/ml NP4Ova were mixed to a final concentration of 250 μg/ml NP4Ova and 2.5 mg/ml alum and rotated for 3 hours at room temperature. […] Mice were then immunized with NP4Ova-alum IP in 200 μl/mouse, and responses were measured on day 7 and day 14 post-immunization.
as §4
For detection of IgM^a anti-Ars antibodies, microtiter plates were coated with 10 μg/ml Ars-BSA16 in PBS and blocked with 2 mg/ml BSA in PBS 0.05% Tween-20. For detection of IgM^a anti-HEL antibodies, microtiter plates were coated with 10 μg/ml HEL in PBS and blocked with 2 mg/ml BSA in PBS 0.05% Tween-20. For detection of total NP-specific IgM and IgG, microtiter plates were coated with 20 μg/ml NP27BSA and blocked with 2 mg/ml BSA in PBS 0.05% Tween-20. For detection of high affinity NP-specific IgM and IgG, microtiter plates were coated with 20 μg/ml NP2BSA and blocked with 2 mg/ml BSA in PBS 0.05% Tween-20. Serial dilutions of mouse serum in PBS were added and incubated overnight at 4° C. Ars/A1-derived IgM^a antibodies and MD4-derived HEL IgM^a antibodies were detected with biotinylated DS.1 anti-IgM^a (BD Pharmingen) in PBS, followed by Streptavidin-HRP (Thermo Fisher Scientific). […]

Setting [1] is: 0.9375 mg/kg or 3.75 mg/kg chow vs vehicle.
[2] abbreviates: 0.9375 mg/kg chow vs vehicle control, 5 days post immunization.
Setting [3] is: 3.75 mg/kg and 30 mg/kg chow vs vehicle control, 5 days post immunization.

On to `CC[C@H](Nc1ncnc2nc[nH]c12)c1nc2cccc(F)c2c(=O)n1-c1ccccc1` [idelalisib, 5-fluoro-3-phenyl-2-[(1S)-1-(7H-purin-6-ylamino)propyl]-4(3H)-quinazolinone], for which, in the experiment with SHP-1^−/− B cells (setting [1]), the “differentiation of SHP-1−/− B cells (plasmablasts)” value is given as “equivalent amounts” and the “proliferation of SHP-1−/− B cells” value is recorded as “equivalent amounts”. Also, in the experiment with SHP-1^−/− B cells (30 mg/kg chow), the “differentiation of SHP-1−/− B cells (plasmablasts)” value is recorded as “decreased” and the “proliferation of SHP-1−/− B cells” value is “decreased”. For the same molecule, in the experiment on SHP-1^−/− B cells (animals receiving idelalisib-containing chow), the “recovery of adoptively transferred SHP-1−/− B cells from the spleens (trend of reduced recovery)” value is “not significant”. Further, in the experiment on SHP-1^−/− B cells (high dose (30 mg/kg chow)), the “autoimmunity (autoantibody, ASCs)” value was “blocked”. For the same molecule, the “loss of anergy caused by SHP-1 induced deficiency (autoantibody, ASCs)” value in the experiment on SHP-1^−/− B cells (low and intermediate dose (0.9375 and 3.75 mg/kg chow)) is given as “no effect”. For the same molecule, in the experiment on MD4 B cells (setting [2]), the “HEL-specific ASCs/spleen” value is “equivalent” and the “IgM anti-HEL antibody response” value is recorded as “equivalent”. In the experiment on MD4 B cells (3.75 mg/kg and 30 mg/kg chow), the “proliferation of recovered MD4 B cells” value is recorded as “proliferated less than in controls” and the “recoverable transferred MD4 B cells in the spleen” value is “significant decreases”. Further, in the experiment on MD4 B cells (setting [3]), the “IgM anti-HEL antibody response” value is “significantly reduced” and the “number of ASCs/spleen” value was “reduced”.
